From patent US11235041B2, “Peptides and combination of peptides for use in immunotherapy against various cancers” (Immatics Biotechnologies GmbH, priority 2015, dated 2022)

Assays:
[1] = test system: CD8+ T cells of healthy HLA-A*02+ donors; assay: In vitro T-cell priming assay with artificial antigen presenting cells loaded with peptide/HLA-A*02 complexes and anti-CD28, multimer readout; format: cell-based, human; conditions: HLA-A*02 peptides; peptide-specific multimer+ CD8+ T cells after in vitro priming; Table 19B
Excerpt: FIGS. 4A to 4D show exemplary results of peptide-specific in vitro CD8+ T cell responses of a healthy HLA-A*02+ donor. CD8+ T cells were primed using artificial APCs coated with anti-CD28 mAb and HLA-A*02 in complex with SeqID No 27 peptide (FIG. 4A, left panel), SeqID No 229 peptide (FIG. 4B, left panel), SeqID No 230 peptide (FIG. 4C, left panel) and SeqID No 235 peptide (FIG. 4D, left panel), respectively. After three cycles of stimulation, the detection of peptide-reactive cells was performed by 2D multimer staining with A*02/SeqID No 27 (FIG. 4A), A*02/SeqlD No 229 (FIG. 4B), A*02/SeqlD No 230 (FIG. 4C) or A*02/SeqlD No 235 (FIG. 4D). Right panels (FIGS. 4A, 4B, 4C and 4D) show control staining of cells stimulated with irrelevant A*02/peptide complexes. Viable singlet cells were gated for CD8+ lymphocytes. Boolean gates helped excluding false-positive events detected with multimers specific for different peptides. Frequencies of specific multimer+ cells among CD8+ lymphocytes are indicated.
In order to obtain information regarding the immunogenicity of the TUMAPs of the present invention, the inventors performed investigations using an in vitro T-cell priming assay based on repeated stimulations of CD8+ T cells with artificial antigen presenting cells (aAPCs) loaded with peptide/MHC complexes and anti-CD28 antibody.
In order to perform in vitro stimulations by artificial antigen presenting cells loaded with peptide-MHC complex (pMHC) and anti-CD28 antibody, the inventors first isolated CD8+ T cells from fresh HLA-A*02 leukapheresis products via positive selection using CD8 microbeads (Miltenyi Biotec, Bergisch-Gladbach, Germany) of healthy donors obtained from the University clinics Mannheim, Germany, after informed consent.
PBMCs and isolated CD8+ lymphocytes were incubated in T-cell medium (TCM) until use consisting of RPMI-Glutamax (Invitrogen, Karisruhe, Germany) supplemented with 10% heat inactivated human AB serum (PAN-Biotech, Aidenbach, Germany), 100 U/ml Penicillin/100 μg/ml Streptomycin (Cambrex, Cologne, Germany), 1 mM sodium pyruvate (CC Pro, Oberdorla, Germany), 20 μg/ml Gentamycin (Cambrex). 2.5 ng/ml IL-7 (PromoCell, Heidelberg, Germany) and 10 U/ml IL-2 (Novartis Pharma, Nürnberg, Germany) were also added to the TCM at this step.
Generation of pMHC/anti-CD28 coated beads, T-cell stimulations and readout was performed in a highly defined in vitro system using four different pMHC molecules per stimulation condition and 8 different pMHC molecules per readout condition.
The purified co-stimulatory mouse IgG2a anti human CD28 Ab 9.3 (Jung et al., 1987) was chemically biotinylated using Sulfo-N-hydroxysuccinimidobiotin as recommended by the manufacturer (Perbio, Bonn, Germany). Beads used were 5.6 μm diameter streptavidin coated polystyrene particles (Bangs Laboratories, Illinois, USA).
pMHC used for positive and negative control stimulations were A*0201/MLA-001 (peptide […] (SEQ ID NO. 303) from modified Melan-A/MART-1) and A*0201/DDX5-001 ([…] from DDX5, SEQ ID NO. 304), respectively.
800.000 beads/200 μl were coated in 96-well plates in the presence of 4×12.5 ng different biotin-pMHC, washed and 600 ng biotin anti-CD28 were added subsequently in a volume of 200 μl. Stimulations were initiated in 96-well plates by co-incubating 1×10^6 CD8+ T cells with […] washed coated beads in 200 μl TCM supplemented with 5 ng/ml IL-12 (PromoCell) for 3 days at 37° C. Half of the medium was then exchanged by fresh TCM supplemented with 80 U/ml IL-2 and incubating was continued for 4 days at 37° C. This stimulation cycle was performed for a total of three times. For the pMHC multimer readout using 8 different pMHC molecules per condition, a two-dimensional combinatorial coding approach was used as previously described (Andersen et al., 2012) with minor modifications encompassing coupling to 5 different fluorochromes. […]

[2] = target: HLA-A*02 (Homo sapiens, UniProt P04439, D140Y/D185E/D98H/E176V/E277Q/G131W/G231S/I119V/I121R/I166T/I218V/L300P/N151K/N90K/P208A/P217A/Q86G/Q94H/R138H/R169H); assay: MHC binding assay: UV-ligand exchange and beta2m ELISA, peptide exchange yield (Table 20); conditions: binding to HLA-A*02; UV-ligand exchange, beta2m ELISA
Excerpt: Candidate peptides for T cell based therapies according to the present invention were further tested for their MHC binding capacity (affinity). The individual peptide-MHC complexes were produced by UV-ligand exchange, where a UV-sensitive peptide is cleaved upon UV-irradiation, and exchanged with the peptide of interest as analyzed. Only peptide candidates that can effectively bind and stabilize the peptide-receptive MHC molecules prevent dissociation of the MHC complexes. To determine the yield of the exchange reaction, an ELISA was performed based on the detection of the light chain (β2m) of stabilized MHC complexes. The assay was performed as generally described in Rodenko et al. (Rodenko et al., 2006).
96 well MAXISorp plates (NUNC) were coated over night with 2 ug/ml streptavidin in PBS at room temperature, washed 4× and blocked for1h at 37° C. in 2% BSA containing blocking buffer. Refolded HLA-A*02:01/MLA-001 monomers served as standards, covering the range of 15-500 ng/ml. Peptide-MHC monomers of the UV-exchange reaction were diluted 100 fold in blocking buffer. Samples were incubated for 1h at 37° C., washed four times, incubated with 2 ug/ml HRP conjugated anti-β2m for 1h at 37′C, washed again and detected with TMB solution that is stopped with […]. Absorption was measured at 450 nm. Candidate peptides that show a high exchange yield (preferably higher than 50%, most preferred higher than 75%) are generally preferred for a generation and production of antibodies or fragments thereof, and/or T cell receptors or fragments thereof, as they show sufficient avidity to the MHC molecules and prevent dissociation of the MHC complexes.
Table 20: MHC class I binding scores. Binding of HLA-class I restricted peptides to HLA-A*02 was ranged by peptide exchange yield: <20%=+; 20%-49%=++; 50%-75%=+++; >=75%=++++

Substance | Wells positive [%] (in vitro immunogenicity) [1] | Peptide exchange (MHC class I binding score, peptide exchange yield) [2]
1 (LLYPEPWSV; listed as Homo sapiens) [compound 1] | ++ (20%-49%=++) | ++++ (>=75% = ++++)
229 (AILAHLNTV; listed as Homo sapiens) [compound 229] | ++ (20%-49%=++) | ++++ (>=75% = ++++)
249 (GLCERLVSL; listed as Homo sapiens) [compound 249] | + (<20%=+) | ++++ (>=75% = ++++)
12 (GLLPLLHRA; listed as Homo sapiens) [compound 12] | ++++ (>=70%=++++) | ++++ (>=75% = ++++)
14 (ILAKDLFEI; listed as Homo sapiens) [compound 14] | ++ (20%-49%=++) | ++++ (>=75% = ++++)
92 (GLLFSLRSV; listed as Homo sapiens) [compound 92] | ++ (20%-49%=++) | ++++ (>=75% = ++++)
4 (KLMPGTYTL; listed as Homo sapiens) [compound 4] | + (<20%=+) | ++++ (>=75% = ++++)
248 (YLDRFLAGV; listed as Homo sapiens) [compound 248] | ++ (20%-49%=++) | ++++ (>=75% = ++++)
